Results as given in ChEMBL document CHEMBL5465560, “Selectivity Literature for EUbOPEN Chemogenomic Library” (2024).

Key:
[1] = biological target: Activin receptor type-1-like (Homo sapiens) (UniProt P37023); conditions: at 10 µM
[2] = biological target: Ribosomal protein S6 kinase alpha-1 (Homo sapiens, UniProt Q15418); conditions: at 10 µM
[3] = biological target: BDNF/NT-3 growth factors receptor (Homo sapiens) (UniProt Q16620); assay: Selectivity interaction (SelectScreen Kinase Profiling (Thermo Fisher Scientific)) EUB0001558a NTRK2; conditions: at 1 µM
[4] = biological target: Polycomb protein SUZ12 (Homo sapiens) (UniProt Q15022); assay: Selectivity interaction (Methyltransferase screen (radiometric assays, panel of 8 PRMTs, 21 protein lysine methyltransferases, 3 DNA methyltransferases, and one RNA methyltransferase)) EUB0000272b SUZ12
[5] = biological target: T1, Serine/threonine-protein kinase ICK (Homo sapiens) (UniProt Q9UPZ9); assay: Selectivity interaction (KinomeScan (DiscoverX)) EUB0000229b ICK; conditions: at 10 µM
T1 sequence (whole entry): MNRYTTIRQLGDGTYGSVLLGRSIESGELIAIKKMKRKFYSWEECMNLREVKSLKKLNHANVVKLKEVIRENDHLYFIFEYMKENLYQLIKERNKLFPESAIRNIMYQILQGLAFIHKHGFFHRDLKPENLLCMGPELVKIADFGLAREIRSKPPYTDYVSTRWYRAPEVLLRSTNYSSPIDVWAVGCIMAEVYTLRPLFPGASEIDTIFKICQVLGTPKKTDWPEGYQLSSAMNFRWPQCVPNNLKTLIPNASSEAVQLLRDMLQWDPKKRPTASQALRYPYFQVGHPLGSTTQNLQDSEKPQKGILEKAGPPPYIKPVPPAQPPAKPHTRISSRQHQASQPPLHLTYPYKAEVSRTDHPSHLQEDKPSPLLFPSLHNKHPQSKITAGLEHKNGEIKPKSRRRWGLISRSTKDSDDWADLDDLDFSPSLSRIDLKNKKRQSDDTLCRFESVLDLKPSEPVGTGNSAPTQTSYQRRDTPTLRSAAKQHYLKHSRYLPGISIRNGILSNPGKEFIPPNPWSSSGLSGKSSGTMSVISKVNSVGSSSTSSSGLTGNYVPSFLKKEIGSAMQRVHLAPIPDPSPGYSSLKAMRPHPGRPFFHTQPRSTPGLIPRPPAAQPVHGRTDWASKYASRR

[6] = biological target: Dual specificity mitogen-activated protein kinase kinase 2 (Homo sapiens) (UniProt P36507); assay: Selectivity interaction (KinomeScan (DiscoverX)) EUB0000229b MAP2K2; conditions: at 10 µM
[7] = biological target: G protein-coupled receptor kinase 4 (Homo sapiens) (UniProt P32298); assay: Selectivity interaction (KinomeScan (DiscoverX)) EUB0000655a GRK4; conditions: at 10 µM
[8] = tested on: Hepatocyte growth factor receptor (Homo sapiens), P08581 [M1250T]; assay: (§1) Selectivity interaction (KinomeScan (DiscoverX)) EUB0000311b MET; conditions: at 1 µM
[9] = tested on: Hepatocyte growth factor receptor (Homo sapiens), P08581 [Y1235D]; assay: as §1; conditions: at 1 µM
[10] = biological target: Hepatocyte growth factor receptor (Homo sapiens, UniProt P08581); assay: as §1; conditions: at 1 µM
[11] = biological target: Casein kinase I isoform delta (Homo sapiens, UniProt P48730); assay: Selectivity interaction (KinomeScan (DiscoverX)) EUB0001049a CSNK1D; conditions: at 1 µM
[12] = biological target: Calcium/calmodulin-dependent protein kinase type 1G (Homo sapiens) (UniProt Q96NX5); conditions: at 10 µM
[13] = biological target: Cyclin-dependent kinase-like 1 (Homo sapiens) (UniProt Q00532); assay: Selectivity interaction (KinomeScan (DiscoverX)) EUB0000045b CDKL1
[14] = biological target: T2, Mitogen-activated protein kinase kinase kinase 6 (Homo sapiens) (UniProt O95382); assay: Selectivity interaction (KinomeScan (DiscoverX)) EUB0000618a MAP3K6; conditions: at 10 µM
T2 sequence (whole entry): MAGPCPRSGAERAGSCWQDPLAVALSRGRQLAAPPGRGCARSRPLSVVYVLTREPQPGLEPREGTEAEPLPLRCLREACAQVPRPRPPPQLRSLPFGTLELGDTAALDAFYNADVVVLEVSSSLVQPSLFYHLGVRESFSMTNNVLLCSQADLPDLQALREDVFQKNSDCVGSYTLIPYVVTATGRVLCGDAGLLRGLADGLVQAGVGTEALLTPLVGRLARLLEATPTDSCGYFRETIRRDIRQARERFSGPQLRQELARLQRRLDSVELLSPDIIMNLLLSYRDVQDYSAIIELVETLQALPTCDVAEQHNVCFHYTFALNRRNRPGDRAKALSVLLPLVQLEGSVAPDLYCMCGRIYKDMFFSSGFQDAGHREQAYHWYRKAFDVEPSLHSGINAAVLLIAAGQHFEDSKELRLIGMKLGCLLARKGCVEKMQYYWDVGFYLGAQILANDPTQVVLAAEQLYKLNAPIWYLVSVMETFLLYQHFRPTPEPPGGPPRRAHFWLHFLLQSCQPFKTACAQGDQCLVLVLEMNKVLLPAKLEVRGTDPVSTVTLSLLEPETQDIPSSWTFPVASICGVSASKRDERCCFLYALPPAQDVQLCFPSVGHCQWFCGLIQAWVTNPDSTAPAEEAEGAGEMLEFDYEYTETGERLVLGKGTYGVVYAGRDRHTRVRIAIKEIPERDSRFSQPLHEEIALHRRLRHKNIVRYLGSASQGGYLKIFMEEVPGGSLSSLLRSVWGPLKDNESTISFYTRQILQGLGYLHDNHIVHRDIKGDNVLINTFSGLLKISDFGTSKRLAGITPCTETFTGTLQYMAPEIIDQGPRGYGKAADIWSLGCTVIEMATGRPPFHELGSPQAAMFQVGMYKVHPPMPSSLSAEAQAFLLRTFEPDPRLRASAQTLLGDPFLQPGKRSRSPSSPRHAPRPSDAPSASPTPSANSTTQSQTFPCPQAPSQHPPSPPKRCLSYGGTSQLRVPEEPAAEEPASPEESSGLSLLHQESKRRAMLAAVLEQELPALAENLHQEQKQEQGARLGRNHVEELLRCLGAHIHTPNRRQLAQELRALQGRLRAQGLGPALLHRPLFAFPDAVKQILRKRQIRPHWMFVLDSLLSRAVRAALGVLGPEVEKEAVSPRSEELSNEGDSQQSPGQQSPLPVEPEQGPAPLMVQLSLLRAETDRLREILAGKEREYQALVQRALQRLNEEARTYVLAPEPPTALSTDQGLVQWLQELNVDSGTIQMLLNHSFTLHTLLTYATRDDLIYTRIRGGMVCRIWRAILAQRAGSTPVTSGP

Chain of Cyclin-dependent kinase-like 1 (Homo sapiens) (Q00532 whole entry): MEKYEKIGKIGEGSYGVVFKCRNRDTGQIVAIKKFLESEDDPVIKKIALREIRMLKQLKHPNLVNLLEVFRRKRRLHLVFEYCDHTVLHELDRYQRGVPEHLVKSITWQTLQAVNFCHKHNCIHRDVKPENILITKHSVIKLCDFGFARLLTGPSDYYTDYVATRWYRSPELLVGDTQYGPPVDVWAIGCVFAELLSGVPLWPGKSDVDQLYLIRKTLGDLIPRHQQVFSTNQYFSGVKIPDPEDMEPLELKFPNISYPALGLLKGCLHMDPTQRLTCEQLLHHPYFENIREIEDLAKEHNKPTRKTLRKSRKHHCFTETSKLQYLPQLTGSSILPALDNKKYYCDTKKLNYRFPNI
Chain of Polycomb protein SUZ12 (Homo sapiens) (Q15022 whole entry): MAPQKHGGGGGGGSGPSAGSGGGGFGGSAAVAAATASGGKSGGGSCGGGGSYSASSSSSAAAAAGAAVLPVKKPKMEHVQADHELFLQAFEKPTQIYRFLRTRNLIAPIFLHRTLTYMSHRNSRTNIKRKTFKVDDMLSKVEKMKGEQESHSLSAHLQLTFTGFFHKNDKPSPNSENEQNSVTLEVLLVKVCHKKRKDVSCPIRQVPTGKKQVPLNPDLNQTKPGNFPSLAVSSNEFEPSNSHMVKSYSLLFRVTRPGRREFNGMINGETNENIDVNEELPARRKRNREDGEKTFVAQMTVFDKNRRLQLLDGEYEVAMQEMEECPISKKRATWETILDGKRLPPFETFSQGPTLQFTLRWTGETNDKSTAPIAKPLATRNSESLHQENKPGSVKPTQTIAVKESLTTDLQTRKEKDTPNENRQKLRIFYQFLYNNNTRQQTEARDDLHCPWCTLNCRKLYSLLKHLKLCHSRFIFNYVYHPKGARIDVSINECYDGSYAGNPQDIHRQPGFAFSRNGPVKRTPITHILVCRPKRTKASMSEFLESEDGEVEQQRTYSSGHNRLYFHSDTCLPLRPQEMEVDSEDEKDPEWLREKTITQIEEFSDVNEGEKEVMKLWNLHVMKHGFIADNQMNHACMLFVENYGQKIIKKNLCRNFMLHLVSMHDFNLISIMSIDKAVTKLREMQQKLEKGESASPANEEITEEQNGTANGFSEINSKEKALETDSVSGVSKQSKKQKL
Chain of Calcium/calmodulin-dependent protein kinase type 1G (Homo sapiens) (Q96NX5 whole entry): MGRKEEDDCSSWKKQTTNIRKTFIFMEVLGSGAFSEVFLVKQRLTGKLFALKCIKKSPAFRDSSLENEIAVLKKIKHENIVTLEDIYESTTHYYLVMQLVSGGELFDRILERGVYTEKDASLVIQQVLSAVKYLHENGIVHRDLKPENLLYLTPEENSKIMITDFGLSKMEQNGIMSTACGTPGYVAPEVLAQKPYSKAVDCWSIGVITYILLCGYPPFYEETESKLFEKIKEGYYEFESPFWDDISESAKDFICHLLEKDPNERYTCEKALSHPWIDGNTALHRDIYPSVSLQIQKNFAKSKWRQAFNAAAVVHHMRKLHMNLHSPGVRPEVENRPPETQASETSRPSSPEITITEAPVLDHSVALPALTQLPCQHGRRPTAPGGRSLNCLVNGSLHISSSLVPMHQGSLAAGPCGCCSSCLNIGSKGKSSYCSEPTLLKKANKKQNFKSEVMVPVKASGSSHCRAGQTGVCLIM
Chain of Hepatocyte growth factor receptor (P08581 whole entry, canonical isoform): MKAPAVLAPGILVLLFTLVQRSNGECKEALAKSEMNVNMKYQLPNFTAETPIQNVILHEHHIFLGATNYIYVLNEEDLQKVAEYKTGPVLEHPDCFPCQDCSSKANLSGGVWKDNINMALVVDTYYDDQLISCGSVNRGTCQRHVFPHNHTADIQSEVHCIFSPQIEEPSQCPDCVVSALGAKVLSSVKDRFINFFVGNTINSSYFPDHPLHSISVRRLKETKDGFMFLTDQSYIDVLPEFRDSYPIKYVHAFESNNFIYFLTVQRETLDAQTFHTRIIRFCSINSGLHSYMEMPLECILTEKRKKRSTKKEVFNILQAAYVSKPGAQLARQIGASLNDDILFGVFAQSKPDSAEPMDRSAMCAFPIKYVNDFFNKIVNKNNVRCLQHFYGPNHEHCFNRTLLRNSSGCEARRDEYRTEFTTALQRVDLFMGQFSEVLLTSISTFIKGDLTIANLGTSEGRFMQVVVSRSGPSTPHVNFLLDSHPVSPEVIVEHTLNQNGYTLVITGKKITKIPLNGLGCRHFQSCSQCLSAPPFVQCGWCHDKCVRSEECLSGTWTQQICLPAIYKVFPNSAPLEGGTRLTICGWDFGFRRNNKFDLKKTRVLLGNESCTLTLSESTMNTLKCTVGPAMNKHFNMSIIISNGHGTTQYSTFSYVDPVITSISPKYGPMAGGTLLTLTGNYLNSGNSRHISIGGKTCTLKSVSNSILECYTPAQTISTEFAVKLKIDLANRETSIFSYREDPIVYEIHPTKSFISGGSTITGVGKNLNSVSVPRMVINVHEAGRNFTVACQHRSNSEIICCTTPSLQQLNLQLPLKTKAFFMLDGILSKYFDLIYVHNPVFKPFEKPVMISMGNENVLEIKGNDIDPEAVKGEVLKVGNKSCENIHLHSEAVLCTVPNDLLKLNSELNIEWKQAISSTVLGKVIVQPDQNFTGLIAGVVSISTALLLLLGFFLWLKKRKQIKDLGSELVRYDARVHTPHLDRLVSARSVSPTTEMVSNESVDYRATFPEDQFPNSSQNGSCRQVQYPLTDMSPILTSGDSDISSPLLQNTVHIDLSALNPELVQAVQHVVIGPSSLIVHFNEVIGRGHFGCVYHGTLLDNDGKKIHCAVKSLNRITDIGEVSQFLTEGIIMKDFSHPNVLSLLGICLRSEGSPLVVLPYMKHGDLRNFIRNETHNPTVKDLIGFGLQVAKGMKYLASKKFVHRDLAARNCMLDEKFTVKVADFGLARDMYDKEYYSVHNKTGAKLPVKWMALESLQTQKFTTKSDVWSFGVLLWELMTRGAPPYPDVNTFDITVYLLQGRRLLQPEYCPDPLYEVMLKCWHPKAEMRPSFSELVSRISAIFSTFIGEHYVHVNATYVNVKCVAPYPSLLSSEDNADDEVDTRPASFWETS
Chain of G protein-coupled receptor kinase 4 (Homo sapiens) (P32298 whole entry, looked up): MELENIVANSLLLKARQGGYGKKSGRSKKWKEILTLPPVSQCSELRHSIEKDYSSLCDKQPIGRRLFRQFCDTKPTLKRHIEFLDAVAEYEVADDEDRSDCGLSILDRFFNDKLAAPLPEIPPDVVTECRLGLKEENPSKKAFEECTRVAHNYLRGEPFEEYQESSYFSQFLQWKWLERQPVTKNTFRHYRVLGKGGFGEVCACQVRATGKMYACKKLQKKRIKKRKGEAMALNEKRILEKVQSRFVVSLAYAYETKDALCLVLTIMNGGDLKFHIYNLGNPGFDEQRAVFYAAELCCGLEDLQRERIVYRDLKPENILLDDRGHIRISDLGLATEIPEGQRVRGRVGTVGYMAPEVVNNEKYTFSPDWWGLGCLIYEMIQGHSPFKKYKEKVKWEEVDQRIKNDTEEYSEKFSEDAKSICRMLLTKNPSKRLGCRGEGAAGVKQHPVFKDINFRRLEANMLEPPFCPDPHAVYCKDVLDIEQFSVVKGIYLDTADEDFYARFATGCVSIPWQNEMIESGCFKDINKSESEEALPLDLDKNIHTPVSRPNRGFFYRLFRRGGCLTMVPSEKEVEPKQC
Chain of Activin receptor type-1-like (Homo sapiens) (P37023 whole entry): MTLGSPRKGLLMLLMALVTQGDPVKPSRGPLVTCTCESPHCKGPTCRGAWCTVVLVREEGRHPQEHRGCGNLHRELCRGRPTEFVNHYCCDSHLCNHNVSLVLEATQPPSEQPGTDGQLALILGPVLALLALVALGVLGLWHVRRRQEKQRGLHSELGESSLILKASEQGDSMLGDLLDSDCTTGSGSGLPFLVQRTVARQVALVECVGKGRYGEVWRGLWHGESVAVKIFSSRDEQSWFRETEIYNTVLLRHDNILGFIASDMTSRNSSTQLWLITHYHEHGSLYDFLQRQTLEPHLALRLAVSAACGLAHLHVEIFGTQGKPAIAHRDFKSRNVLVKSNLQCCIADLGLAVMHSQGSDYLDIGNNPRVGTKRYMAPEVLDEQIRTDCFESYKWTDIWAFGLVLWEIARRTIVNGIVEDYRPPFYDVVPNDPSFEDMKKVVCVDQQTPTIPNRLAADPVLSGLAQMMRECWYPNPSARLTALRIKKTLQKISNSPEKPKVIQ
Chain of Ribosomal protein S6 kinase alpha-1 (Q15418 whole entry): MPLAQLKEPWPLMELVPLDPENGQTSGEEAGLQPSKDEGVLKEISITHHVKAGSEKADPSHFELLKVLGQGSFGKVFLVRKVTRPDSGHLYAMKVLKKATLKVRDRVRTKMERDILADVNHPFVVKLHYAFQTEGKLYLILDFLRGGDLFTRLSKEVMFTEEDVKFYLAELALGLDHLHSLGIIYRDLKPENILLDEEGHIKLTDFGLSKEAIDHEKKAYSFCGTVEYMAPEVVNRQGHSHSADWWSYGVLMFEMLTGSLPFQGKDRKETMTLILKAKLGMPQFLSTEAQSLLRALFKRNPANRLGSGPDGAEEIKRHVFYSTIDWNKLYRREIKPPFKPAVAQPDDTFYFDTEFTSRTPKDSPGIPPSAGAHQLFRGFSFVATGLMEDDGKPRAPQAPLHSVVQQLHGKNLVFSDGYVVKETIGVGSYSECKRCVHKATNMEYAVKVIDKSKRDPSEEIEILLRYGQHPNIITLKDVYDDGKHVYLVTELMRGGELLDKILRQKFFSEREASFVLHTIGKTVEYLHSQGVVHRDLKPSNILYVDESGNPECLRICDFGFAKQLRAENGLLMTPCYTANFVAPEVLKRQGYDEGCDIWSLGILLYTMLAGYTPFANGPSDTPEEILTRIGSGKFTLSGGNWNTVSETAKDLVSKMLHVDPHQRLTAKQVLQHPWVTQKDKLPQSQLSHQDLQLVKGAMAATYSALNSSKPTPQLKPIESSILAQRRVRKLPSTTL

Compound: CCN(CC)CCCCNc1ncc2cc(-c3cc(OC)cc(OC)c3)c(NC(=O)NC(C)(C)C)nc2n1
- % of control [1]: 100%
- % of control [2]: 100%

Compound: CC(C)(O)[C@H](F)CN1Cc2cc(NC(=O)c3cnn4cccnc34)c(N3CCOCC3)cc2C1=O
- % of inhibition [3]: 86%

Compound: Cc1cc(C)cc([C@H]2c3cc(C)ccc3NC(=O)CN2C(=O)c2ccc(Br)s2)c1
- % of activity ([4]; at 1 µM): 102%
- % of activity ([4]; at 10 µM): 97.3%

Compound: COc1cc(N(C)c2ccnc3ccc(C(F)(F)F)cc23)cc(OC)c1OC
- % binding [5]: 73%
- % binding [6]: 68%

Compound: CN(C)CCOc1ccc(-c2nc(-c3ccncc3)c(-c3ccc4c(c3)CC/C4=N\O)[nH]2)cc1
- % of control [7]: 100%

Compound: CCc1ccccc1C(=O)Nc1n[nH]c2c(C)c(F)c(C3C(C#N)=C(C)N(C)C(C)=C3C#N)cc12 [BAY-3827]
- % of control [8]: 25%
- % of control [9]: 16%
- % of control [10]: 7.3%

Compound: COc1cc(Nc2nc(C)cc(-c3cnn4nc(OC)ccc34)n2)cc(C(F)(F)F)c1
- % of control [11]: 90%

Compound: COCC(=O)NC/C=C/c1ccc2ncnc(Nc3ccc(Oc4ccc(C)nc4)c(C)c3)c2c1 [CP-724714]
- % of control [12]: 96%

Compound: C=CC(=O)Nc1cc(-n2c(=O)ccc3cnc4ccc(-c5ccc(NS(C)(=O)=O)cc5)cc4c32)ccc1C
- % of control ([13]; at 1 µM): 100%
- % of control ([13]; at 10 µM): 58%

Compound: O[C@H]1CC[C@H](Nc2ncc3nc(Nc4c(F)cc(F)cc4F)n([C@H]4CCOC4)c3n2)CC1
- % of control [14]: 88%
